Assay results: paper PMC4491869, “Antimicrobial activity of synthetic cationic peptides and lipopeptides derived from human lactoferricin against Pseudomonas aeruginosa planktonic cultures and biofilms” (BMC Microbiology, 2015)
≈ marks a conversion by molar mass, not a printed value. Where a SMILES comes first, the peptide text is derived from it. The star is where a group is joined. Butanoyl(2,2-Me2) = CCC(C)(C)C(=O)*; Octanoyl(6-Me) = CCC(C)CCCCC(=O)*

What was measured:
[1] = system: Pseudomonas aeruginosa PAO1 planktonic cells; format: cell-based; conditions: PAO1, 24 h
Experimental: Minimal inhibitory concentrations (MIC) of the peptides were determined in Mueller Hinton (MH) medium (Difco Laboratories, Detroit, MI, USA) by the broth microdilution assay following recommendations of the Clinical and Laboratory Standards Institute (CLSI, formerly NCCLS) with some modifications. Minimum bactericidal concentration (MBC) was defined as the concentration that caused a 3-log viability decrease in the initial inoculum and was calculated by colony counts on TSA plates incubated for 24 h at 37 °C.

P. aeruginosa PAO1 = experiment: Time-kill curves (T3log); format: cell-based, Pseudomonas aeruginosa; conditions: MH, 37 °C with shaking, sampling 15 min to 6 h
Experimental: Time-kill studies were determined with glass tubes containing 10 ml of MH and different concentrations of the peptides (1, 2 and 4 times their MIC). Overnight cultures of P. aeruginosa PAO1 in TSB were adjusted at 5 × 10^7 CFU/ml turbidimetrically. This […] suspension was diluted in the MH tubes (1:50) for the time-kill assay. Tubes were incubated at 37 °C with shaking and samples were taken at the following time points after the beginning of incubation: 15 min, 30 min, 45 min, 1 h, 2 h, 4 h and 6 h. Each sample was serially diluted and plated. The lower limit of detection was 30 CFU/ml (1.5 × log10 CFU/ml).
To quantify the killing efficiency of the treatments, the parameter T3log (defined as the time required for the treatment to decrease 3 logs the initial inoculum) was used.

S. aureus = experiment: MIC against S. aureus; format: cell-based; conditions: data not shown
[2] = system: P. aeruginosa PAO1 biofilms; format: cell-based, Pseudomonas aeruginosa; conditions: 10XMIC, 24 h at 37 °C, biofilms grown in microplates (static conditions)
Experimental: In the microplate based assay, biofilms were grown with no fluid shear and the anti-biofilm activity of peptides was assessed as previously described with some modifications. Briefly, overnight cultures of P. aeruginosa PAO1 in TSB were adjusted at 5 × 10^7 CFU/ml turbidimetrically. This suspension was diluted in TSB (1:100) and 100 μl aliquots were added to the wells of a 96-well plate. After 24 h incubation at 37 °C, planktonic bacteria were removed by gently inverting the plate and then the biofilm-containing wells were washed with saline (0.85 % NaCl). The antimicrobial compound was serially diluted in Mueller Hinton (MH) at final concentrations higher than its planktonic MIC and 200 μl of each dilution was added to the wells. After 24 h incubation at 37 °C, biofilms were stained with either MTT (Sigma, St. Louis, MO, USA) or crystal violet (CV). As control, duplicate biofilms were incubated with MH containing no antimicrobial.
To quantify the disinfection (or bactericidal) activity of the antimicrobials on the biofilms, the MTT assay was used and performed as follows. After the treatment, the biofilms were rinsed with saline and 200 μl of a 0.5 mg/ml dilution of MTT in MH, was added to the wells. Incubation of biofilm with MTT was carried out during 4 h at 37 °C with no shaking. As a measure of cell viability, the conversion of MTT to a […] was determined by solubilizing the salt in 100 μl/well of DMSO and reading the absorbance of the resulting solution at 540 nm.
Both the disinfection and removal activity of antimicrobials were expressed as “activity percentage”, a parameter that was calculated using the following formula: ActivityPercentage=C−B−T−B/C−B×100
Where C is the absorbance value of the control well with non-treated biofilm, T corresponds to the absorbance value of the well with treated biofilm and B is the blank well (i.e. with no biofilm).

[3] = system: P. aeruginosa PAO1 pMF230 biofilm; experiment: CDC-reactor biofilm assay, confocal laser scanning microscopy (GFP/PI); format: cell-based, Pseudomonas aeruginosa; conditions: 10XMIC, 60 min, CLSM, determined by volume
Experimental: (§1) Briefly, 1 ml of an overnight culture of P. aeruginosa PAO1 pMF230 was inoculated into 350 ml of TSB and this suspension was used to fill the reactor chamber. After 24 h of growth in batch culture at 37 °C with magnetic agitation, a continuous flow of TSB (3 g/l) was applied to the reactor chamber at a rate of 11 ml/min. Under these conditions, a dense biofilm develops on the surface of small disks called coupons that are constantly bathed in fresh culture medium. After 24 h incubation, the coupons were removed from the chamber and planktonic cells were eliminated by rinsing the coupons with saline. […]
(§2) For the microscopic assessment of anti-biofilm activity, biofilms grown and treated on coupons as detailed above were soaked in a 120 μM solution of propidium iodide (PI, live/dead® Baclight™ bacterial viability kit, Invitrogen, Carlsbad, CA, USA) in filter-sterilized distilled water and incubated for 15 min at room temperature. Then, coupons were rinsed in filter-sterilized distilled water and their surface was examined by fluorescence microscopy using FITC filter (green fluorescence: λexcitation, 499 nm; λemission, 519 nm) and TRITC filter (red fluorescence: λexcitation, 552 nm; λemission, 578 nm). […] Microscope images were analyzed with the software Imaris® × 64 5.7.2. […]

HeLa cells = experiment: Cytotoxicity assay (MTT); format: cell-based
Experimental: Cytotoxicity was assayed on HeLa cells using the MTT [3-(4,5-dimethylthiazoyl-2-yl) 2,5 diphenyltetrazolium bromide protocol. Cells were grown in Dulbeccos’s modified Eagle’s medium (DMEM) and adjusted to a concentration of 10^5 cells/ml (MTT) in 96 wells polystyrene plates. Plates were incubated for 24 h at 37 °C in 5 % CO2, then supplemented with increasing amounts of peptides diluted in 2 mM Hepes pH 7.2, and incubation carried on for 24 h under the same conditions. After this time, filter-sterilized MTT was added in different plates. After 3 h, the content of the wells was gently solved and mixed with 100 μl of DMSO (MTT). Absorbance was measured at 540 nm. Compound cytotoxicity was expressed as LC50, the concentration of the compound that is lethal to 50 % of the cells.

[4] = system: P. aeruginosa PAO1 pMF230 biofilm; experiment: CDC-reactor biofilm assay, fluorescence microscopy (GFP/PI); format: cell-based, Pseudomonas aeruginosa; conditions: 10XMIC, 60 min, CDC-reactor coupons; compared with 24 h microplate assay
Experimental: as §1, §2

SMILES | MBC (minimal bactericidal concentration) [1] | MIC (minimal inhibitory concentration) [1] | T3log at 1X MIC (time needed to decrease 3 logs the initial inoculum) (P. aeruginosa PAO1) | T3log at 2X MIC (time needed to decrease 3 logs the initial inoculum) (P. aeruginosa PAO1) | T3log at 4X MIC (time needed to decrease 3 logs the initial inoculum) (P. aeruginosa PAO1) | MIC against S. aureus compared with non-acylated counterpart (S. aureus) | Disinfection activity (biofilm-forming bacteria killed, MTT test) [2] | Percentage of dead (red) cells in the biofilm volume [3] | LC50 expressed as multiple of the MIC (HeLa cells) | LC50 (concentration lethal to 50 % of the cells) (HeLa cells; HeLa cells, 24 h, MTT) | Anti-biofilm activity under static and dynamic conditions (fluorescence microscopy) [4]
CCC(C)CCCCC(=O)N[C@@H](Cc1ccccc1)C(=O)N[C@@H](Cc1c[nH]c2ccccc12)C(=O)N[C@@H](CCCNC(=N)N)C(=O)N[C@@H](CCCNC(=N)N)C(=O)N[C@@H](Cc1ccccc1)C(=O)N[C@@H](Cc1c[nH]c2ccccc12)C(=O)N[C@@H](CCCNC(=N)N)C(=O)N[C@@H](CCCNC(=N)N)C(N)=O (stereo partly shown) [6-MO-LF11-227] ({Octanoyl(6-Me)}-FWRRFWRR-NH2) | 128 µg/mL (≈ 88.3 µM) | 128 µg/mL (≈ 88.3 µM) | 10 minutes | 10 minutes | 10 minutes | eight times lower | – | – | – | – | –
CC[C@H](C)[C@H](NC(=O)[C@H](CCCNC(=N)N)NC(=O)[C@@H](NC(=O)[C@H](CCCNC(=N)N)NC(=O)[C@H](Cc1c[nH]c2ccccc12)NC(=O)[C@H](Cc1ccccc1)NC(=O)[C@@H]1CCCN1C(=O)C(C)(C)CC)[C@@H](C)CC)C(=O)N[C@@H](CCCNC(=N)N)C(=O)N[C@@H](CCCNC(=N)N)C(N)=O [DI-MB-LF11-322, 2,2-dimethylbutanoyl-PFWRIRIRR] ({Butanoyl(2,2-Me2)}-PFWRIRIRR-NH2) | 32 µg/mL (≈ 22.9 µM) | 32 µg/mL (≈ 22.9 µM) | 12 minutes | 11 minutes | 10 minutes | – | medium-range disinfection activity | 99.81% | ~2 XMIC | 80 µg/mL | potent anti-biofilm activity
